# Laboratory results published in ChEMBL document CHEMBL1138246, “Ester prodrugs of cyclic 1-(S)-[3-hydroxy-2-(phosphonomethoxy)propyl]-5-azacytosine: synthesis and antiviral activity” (J Med Chem, 2007).
# Experiments:
# HeLa = assay: Cytotoxicity against HeLa cells assessed as alteration in morphology after 3 days; type: functional, cell-based; details: Homo sapiens, 72 h
# Human alphaherpesvirus 2 [1] = type: functional, organism-based; details: Human alphaherpesvirus 2, Lyons, HEL
# Human alphaherpesvirus 2 [2] = type: functional, organism-based; details: Human alphaherpesvirus 2, G, HEL
# Human alphaherpesvirus 3 [3] = type: functional, organism-based; details: Human alphaherpesvirus 3, OKA, HEL
# Human alphaherpesvirus 3 [4] = type: functional, organism-based; details: Human alphaherpesvirus 3, 07-1, HEL
# Human betaherpesvirus 5 [5] = type: functional, organism-based; details: Human betaherpesvirus 5, AD169, HEL
# Human betaherpesvirus 5 [6] = type: functional, organism-based; details: Human betaherpesvirus 5, Davis, HEL
# Human adenovirus 2 = type: functional, organism-based; details: Human mastadenovirus C, HEL
# HEL [7] = assay: Cytotoxicity against HEL cells assessed as alteration in morphology after 3 days; type: functional; details: Homo sapiens, 72 h
# [8] = Cytotoxicity against HSB2 cells assessed as alteration in morphology after 3 days; type: functional, Homo sapiens, CCRF-HSB-2
# MOLT-3 = assay: Cytotoxicity against MOLT3 cells assessed as alteration in morphology after 3 days; type: functional, Homo sapiens
# HEL [9] = assay: Cytotoxicity against HEL cells assessed as cell growth after 3 days; type: functional, Homo sapiens
# [10] = tested on: Human immunodeficiency virus 1; type: functional, organism-based; details: Human immunodeficiency virus 1, 3B, CCRF-CEM, 96 h
# [11] = tested on: Human immunodeficiency virus 2; type: functional, organism-based; details: Human immunodeficiency virus 2, ROD, CCRF-CEM, 96 h
# Coxsackievirus B4 [12] = type: functional, organism-based; details: Enterovirus B, HeLa
# Coxsackievirus B4 [13] = type: functional, organism-based; details: Enterovirus B, Vero
# [14] = tested on: Respiratory syncytial virus; type: functional, organism-based; details: human respiratory syncytial virus, HeLa
# Human respirovirus 3 = assay: Antiviral activity against Parainfluenza 3 in Vero cells reduction of virus-induced cytopathogenicity after 4 days; type: functional, organism-based; details: Human respirovirus 3, Vero, 96 h
# [15] = tested on: Mammalian orthoreovirus 1; assay: Antiviral activity against Reovirus 1 in Vero cells reduction of virus-induced cytopathogenicity after 4 days; type: functional, organism-based; details: Mammalian orthoreovirus 1, Vero, 96 h
# Sindbis virus = assay: Antiviral activity against Sindbis virus in Vero cells reduction of virus-induced cytopathogenicity after 4 days; type: functional, organism-based; details: 96 h
# Punta Toro virus = assay: Antiviral activity against Punta Toro virus in Vero cells reduction of virus-induced cytopathogenicity after 4 days; type: functional, organism-based; details: 96 h
# Vero = assay: (§1) Cytotoxicity against Vero cells assessed as alteration in morphology after 3 days; type: cell-based, Chlorocebus sabaeus; details: Chlorocebus sabaeus, Vero, 72 h
# [16] = Cytotoxicity against C3H cells assessed as alteration in morphology after 3 days; type: cell-based, Mus musculus; details: for EC50: Mus musculus, C3H, 72 h; for MCC at 72 h: mouse, C3H cells
# CCRF-CEM = assay: Cytotoxicity against CEM cells assessed as cell growth after 3 days; type: functional; details: Homo sapiens, 72 h
# [17] = tested on: Vesicular stomatitis virus; assay: microbe, parasite or virus in culture; details: HEL
# [18] = tested on: Vesicular stomatitis virus; assay: microbe, parasite or virus in culture; details: HeLa
# [19] = tested on: Moloney murine sarcoma virus; details: C3H
# [20] = as §1; type: cell-based, Chlorocebus sabaeus; details: chlorocebus sabaeus, Vero cells
# [21] = Homo sapiens, CCRF-HSB-2, 72 h, read-out: MCC
# [22] = Homo sapiens, MOLT-3, 72 h, read-out: MCC
# [23] = Homo sapiens, HEL, 72 h, read-out: CC50
SMILES,EC50 (Human alphaherpesvirus 2 [1]) [µg/mL],EC50 (Human alphaherpesvirus 2 [2]) [µg/mL],EC50 (Human alphaherpesvirus 3 [3]) [µg/mL],EC50 (Human alphaherpesvirus 3 [4]) [µg/mL],EC50 (Human betaherpesvirus 5 [5]) [µg/mL],EC50 (Human betaherpesvirus 5 [6]) [µg/mL],MCC (HEL [7]) [µg/mL],CC50 (HEL [9]; [23]) [µg/mL],EC50 (Coxsackievirus B4 [12]) [µg/mL],EC50 (Coxsackievirus B4 [13]) [µg/mL],EC50 [14] [µg/mL],EC50 (Human respirovirus 3) [µg/mL],EC50 [15] [µg/mL],EC50 (Sindbis virus) [µg/mL],EC50 (Punta Toro virus) [µg/mL],EC50 [17] [µg/mL],EC50 [18] [µg/mL],EC50 [19] [µg/mL],MCC (HeLa) [µg/mL],MCC at 72 h [20] [µg/mL],also measured
Nc1ncn(C[C@@H](CO)OCP(=O)(O)O)c(=O)n1,0.24,0.45,0.06,0.039,0.23,0.082,> 100,225,> 100,> 100,> 100,> 100,> 100,> 100,> 100,> 100,> 100,≥ 4,–,–,"EC50 (HeLa): > 100 µg/mL; EC50 (Human adenovirus 2): 0.71 µg/mL; MCC [8, 21]: 16 µg/mL; MCC (MOLT-3; [22]): 16 µg/mL; EC50 [10]: 20 µg/mL; EC50 [11]: 20 µg/mL; EC50 (Vero): > 100 µg/mL; EC50 [16]: > 20 µg/mL; CC50 (CCRF-CEM): 30 µg/mL"
Nc1ncn(C[C@H]2COP(=O)(O)CO2)c(=O)n1,0.48,0.61,0.12,0.04,0.07,0.06,> 100,> 100,> 200,> 200,> 200,> 200,> 200,> 200,> 200,> 200,> 200,> 20,> 200,> 200,"MCC [8, 21]: 200 µg/mL; MCC (MOLT-3; [22]): 33 µg/mL; MCC at 72 h [16]: 100 µg/mL"
CCCCCCCCCCCCCCCCOCCOP1(=O)CO[C@@H](Cn2cnc(N)nc2=O)CO1 (some centres not stated),0.004,0.082,0.0014,0.0008,0.00038,0.00014,16,–,> 3.2,16,> 3.2,16,16,16,16,> 3.2,> 3.2,> 4,16,80,EC50 (Human adenovirus 2): < 0.512 µg/mL; MCC [8]: 1.6 µg/mL; MCC (MOLT-3): 0.56 µg/mL; CC50 (HEL [9]): 6.4 µg/mL; EC50 [10]: > 0.8 µg/mL; EC50 [11]: > 0.8 µg/mL; MCC at 72 h [16]: 20 µg/mL; CC50 (CCRF-CEM): 2 µg/mL
CCCCCCCCCCCCCCCCCCOP1(=O)CO[C@@H](Cn2cnc(N)nc2=O)CO1 (some centres not stated),1.31,1.66,0.04,0.009,0.0037,0.0014,8,> 100,> 40,> 8,> 40,> 8,> 8,> 8,> 8,> 1.6,> 40,> 4,–,–,"EC50 (HeLa): 200 µg/mL; EC50 (Human adenovirus 2): 0.051 µg/mL; MCC [8, 21]: ≥ 5 µg/mL; MCC (MOLT-3; [22]): 0.8 µg/mL; EC50 [10]: > 20 µg/mL; EC50 [11]: > 20 µg/mL; EC50 (Vero): 40 µg/mL; EC50 [16]: 20 µg/mL; CC50 (CCRF-CEM): 12 µg/mL"
CC(C)(C)C(=O)OCOP1(=O)CO[C@@H](Cn2cnc(N)nc2=O)CO1 (some centres not stated),0.24,0.32,0.11,0.02,0.061,0.067,> 40,14,> 20,> 100,> 20,> 100,> 100,> 100,> 100,> 20,> 20,> 20,100,> 100,"EC50 (Human adenovirus 2): 0.069 µg/mL; MCC [8, 21]: 4 µg/mL; MCC (MOLT-3; [22]): ≥ 4 µg/mL; EC50 [10]: > 20 µg/mL; EC50 [11]: > 20 µg/mL; MCC at 72 h [16]: 100 µg/mL; CC50 (CCRF-CEM): 18 µg/mL"
Nc1ncnc2c1ncn2C[C@H](O)CO [(S)-DHPA],–,–,–,–,–,–,–,–,> 200,> 200,> 200,> 200,200,> 200,> 200,–,120,–,> 200,> 200,–
Nc1nc2c(ncn2COCCO)c(=O)[nH]1 [ACYCLOVIR],–,0.05,–,–,–,–,> 100,212,–,–,–,–,–,–,–,–,–,–,–,–,–
O=c1[nH]c(=O)n([C@H]2C[C@H](O)[C@@H](CO)O2)cc1/C=C/Br [BRIVUDINE],8.8,9,0.0022,≥ 44.4,–,–,> 100,212,> 200,> 200,> 200,> 200,> 200,> 200,> 200,200,200,–,> 200,> 200,–
Nc1ccn(C[C@@H](CO)OCP(=O)(O)O)c(=O)n1.O.O [CIDOFOVIR],0.42,0.65,0.09,0.03,0.15,0.18,> 31.5,76,> 31.5,> 31.5,> 31.5,> 31.5,> 31.5,> 31.5,> 31.5,> 31.5,> 31.5,> 4,> 31.5,> 31.5,"EC50 (Human adenovirus 2): 2 µg/mL; MCC [8, 21]: 60 µg/mL; EC50 [10]: > 20 µg/mL; EC50 [11]: > 20 µg/mL; MCC at 72 h [16]: 20 µg/mL"
Nc1ccn(C[C@H]2COP(=O)(O)CO2)c(=O)n1 [CYCLIC CIDOFOVIR],0.45,0.76,0.12,0.04,0.21,0.22,> 100,≥ 76,> 200,> 200,> 200,> 200,> 200,> 200,> 200,> 200,> 200,> 20,> 200,> 200,EC50 [10]: > 20 µg/mL; EC50 [11]: > 20 µg/mL; MCC at 72 h [16]: 100 µg/mL
Nc1nc2c(ncn2COC(CO)CO)c(=O)[nH]1 [GANCICLOVIR],0.0014,0.0036,–,–,1.68,1.29,> 100,122,–,–,–,–,–,–,–,–,–,–,–,–,–
NC(=O)c1ncn([C@@H]2O[C@H](CO)[C@@H](O)[C@H]2O)n1 [RIBAVIRIN],–,–,–,–,–,–,> 200,–,90,> 200,24,120,200,120,40,120,24,–,> 200,> 200,–
